Read-outs that look alike come from different tables or passages of the source.
Legend:
[1] = human, cited from earlier work
[2] = human
[3] = human, intravenous, cited from earlier work
plasma protein = details: cited from earlier work; for fp_Human (free fraction in plasma): human
[4] = intravenous, median if multiple values were reported, ref numbers in Table S1
[5] = median if multiple values were reported, ref numbers in Table S1
[6] = collected value, median if multiple values were reported, ref: Table S1
[7] = human plasma free fraction, median if multiple values were reported, ref numbers in Table S1
[8] = median if multiple values reported, Reference of Table S1
[9] = intravenous, median if multiple values reported, Reference of Table S1

SMILES | in vivo Vd_(L/kg)_Human [1, 4] [L/kg] | in vivo MRT_(hr)_Human [2] [h] | in vivo CL_(L/hr/kg)_Human [3, 5] [L/h/kg] | also measured
Cc1[nH]cnc1CN1CCc2c(c3ccccc3n2C)C1=O [Alosetron] | 1.100 | 2.107 | 0.522 | 
Cc1cc(=O)n(-c2ccccc2)n1C [Antipyrine] | 0.820 | 21.354 | 0.038 | 
Cn1c(=O)c2c(ncn2C)n(C)c1=O [Caffeine] | 0.680 | 8.095 | 0.084 | 
COCc1c(C(C)C)nc(C(C)C)c(/C=C/[C@@H](O)C[C@@H](O)CC(=O)O)c1-c1ccc(F)cc1 [Cerivastatin] | 0.330 | 1.897 | 0.174 | 
CN(C)CCCN1c2ccccc2Sc2ccc(Cl)cc21 [Chlorpromazine] | 10.500 | 10.938 | 0.960 | 
NS(=O)(=O)c1cc(C2(O)NC(=O)c3ccccc32)ccc1Cl (stereo not shown) [Chlorthalidone] | 3.900 | 43.333 | 0.046 | 
CN/C(=N/CCSCc1nc[nH]c1C)NC#N [Cimetidine] | 1.200 | 2.469 | 0.492 | 
CN(C)CCCN1c2ccccc2CCc2ccc(Cl)cc21 [Clomipramine] | 13.000 | 26.423 | 0.492 | 
O=c1ccc2ccccc2o1 [Coumarin] | 2.200 | 2.157 | 1.020 | 
Nc1ccc(S(=O)(=O)c2ccc(N)cc2)cc1 [Dapsone] | 0.830 | 28.819 |  | fp_Human (free fraction in plasma) (plasma protein; [6]): 0.315
Cc1onc(-c2c(Cl)cccc2Cl)c1C(=O)N[C@@H]1C(=O)N2[C@@H]1SC(C)(C)[C@@H]2C(=O)O [Dicloxacillin] | 0.110 | 0.917 | 0.108 | 
C[C@H]1O[C@@H](O[C@H]2[C@@H](O)C[C@H](O[C@H]3[C@@H](O)C[C@H](O[C@H]4CC[C@@]5(C)[C@H](CC[C@@H]6[C@@H]5C[C@@H](O)[C@]5(C)[C@@H](C7=CC(=O)OC7)CC[C@]65O)C4)O[C@@H]3C)O[C@@H]2C)C[C@H](O)[C@@H]1O [Digoxin] | 4.100 | 40.196 | 0.102 | 
CN(C)CCC=C1c2ccccc2COc2ccccc21 [Doxepin] | 12.000 | 14.286 | 0.840 | 
CC[C@@H](CO)NCCN[C@@H](CC)CO [Ethambutol] | 1.700 | 2.833 | 0.600 | 
CN1CCN(c2c(F)cc3c(=O)c(C(=O)O)cn(CCF)c3c2F)CC1 [Fleroxacin] | 1.550 | 10.764 | 0.144 | 
OC(Cn1cncn1)(Cn1cncn1)c1ccc(F)cc1F [Fluconazole] | 0.750 | 40.323 | 0.019 | 
CN[C@@H]1CCc2[nH]c3ccc(C(N)=O)cc3c2C1 [Frovatriptan] | 3.600 | 24.000 | 0.150 | 
Nc1nc(O)c2ncn(COC(CO)CO)c2n1 [Ganciclovir] | 1.000 | 3.623 | 0.240 | 
CNC(C)C1CCC(N)C(OC2C(N)CC(N)C(OC3OCC(C)(O)C(NC)C3O)C2O)O1 (stereo not shown) [Gentamicin] |  | 5.500 |  | fp_Human (free fraction in plasma) (plasma protein; plasma): 1.000
COc1ccc(Cl)cc1C(=O)NCCc1ccc(S(=O)(=O)NC(=O)NC2CCCCC2)cc1 [Glyburide] | 0.080 | 1.626 |  | fp_Human (free fraction in plasma) (plasma protein; [6]): 0.021
CN1C2CCCC1CC(NC(=O)c1nn(C)c3ccccc13)C2 (stereo not shown) [Granisetron] | 3.700 | 6.777 | 0.546 | 
O=C(CCCN1CCC(O)(c2ccc(Cl)cc2)CC1)c1ccc(F)cc1 [Haloperidol] | 17.500 | 37.393 |  | fp_Human (plasma protein; [7]): 0.100; fp_Human (free fraction in plasma) (plasma protein; [6]): 0.100
NNc1nncc2ccccc12 [Hydralazine] | 1.500 | 0.294 | 5.100 | fp_Human (free fraction in plasma) (plasma protein; [6]): 0.120

SMILES | in vivo Vd_(L/kg)_Human [1, 4] [L/kg] | in vivo MRT_(hr)_Human [2] [h] | in vivo CL_(L/hr/kg)_Human [3, 5] [L/h/kg] | also measured
CC(C)(C)NC(=O)[C@@H]1CN(Cc2cccnc2)CCN1C[C@@H](O)C[C@@H](Cc1ccccc1)C(=O)N[C@H]1c2ccccc2C[C@H]1O [Indinavir] | 0.820 | 0.759 | 1.080 | 
CNC1(c2ccccc2Cl)CCCCC1=O (stereo not shown) [Ketamine] |  | 2.544 |  | in vivo Vd_(L/kg)_Human ([1]; in vivo, iv): 2.900 L/kg; fp_Human (free fraction in plasma) (plasma protein; [6]): 0.770
C[C@H]1COc2c(N3CCN(C)CC3)c(F)cc3c(=O)c(C(=O)O)cn1c23 [Levofloxacin] | 4.250 | 37.281 | 0.114 | 
CC(=O)NC[C@H]1CN(c2ccc(N3CCOCC3)c(F)c2)C(=O)O1 [Linezolid] | 0.580 | 5.370 | 0.117 | fp_Human (plasma protein; [7]): 0.690
CCCCc1nc(Cl)c(CO)n1Cc1ccc(-c2ccccc2-c2nn[nH]n2)cc1 [Losartan] | 0.370 | 0.752 | 0.489 | 
CC(C)Oc1ccccc1N1CCN(Cc2cccc(C(=O)N3CCCCC3)c2)CC1 [Mazapertine] | 1.540 | 4.160 | 0.370 | 
CN(C)C(=N)N=C(N)N [Metformin] | 0.640 | 1.441 | 0.444 | fp_Human (plasma protein; [7]): 1.000
CCN(CC)CCNC(=O)c1cc(Cl)c(N)cc1OC [Metoclopramide] | 3.200 | 9.357 | 0.342 | 
Cc1ccccc1N1C(=O)c2cc(S(N)(=O)=O)c(Cl)cc2NC1C (stereo not shown) [Metolazone] | 1.600 | 19.048 | 0.084 | 
Cc1ncc([N+](=O)[O-])n1CCO [Metronidazole] | 0.400 | 7.843 | 0.051 | 
CC(C)(O)c1ccccc1CC[C@@H](SCC1(CC(=O)O)CC1)c1cccc(/C=C/c2ccc3ccc(Cl)cc3n2)c1 [Montelukast] | 0.150 | 3.676 | 0.041 | 
COC(=O)C1=C(C)NC(C)=C(C(=O)OCC(C)C)C1c1ccccc1[N+](=O)[O-] (stereo not shown) [Nisoldipine] | 5.500 | 6.111 | 0.900 | 
O=C1CN=C(c2ccccc2)c2cc([N+](=O)[O-])ccc2N1 [Nitrazepam] |  | 32.946 | 0.052 | in vivo Vd_(L/kg)_Human ([1]; in vivo, iv): 1.700 L/kg
O=C1CN(/N=C/c2ccc([N+](=O)[O-])o2)C(=O)N1 [Nitrofurantoin] | 0.570 | 0.979 |  | fp_Human (free fraction in plasma) (plasma protein; [6]): 0.380
CNCCC=C1c2ccccc2CCc2ccccc21 [Nortriptyline] | 22.000 | 36.667 | 0.516 | 
CC1COc2c(N3CCN(C)CC3)c(F)cc3c(=O)c(C(=O)O)cn1c23 (stereo not shown) [Ofloxacin] | 1.600 | 10.667 | 0.150 | 
Cc1nccn1CC1CCc2c(c3ccccc3n2C)C1=O (stereo not shown) [Ondansetron] | 1.800 | 5.172 | 0.354 | 
CC(=O)O[C@H]1C[C@@H]2CC[C@@H]3[C@H](CC[C@@]4(C)[C@H]3C[C@H]([N+]3(C)CCCCC3)[C@@H]4OC(C)=O)[C@@]2(C)C[C@@H]1[N+]1(C)CCCCC1 [Pancuronium] |  | 2.222 |  | in vivo Vd_(L/kg)_Human ([1]; in vivo, iv): 0.200 L/kg; fp_Human (free fraction in plasma) (plasma protein; [6]): 0.090
CCC1(c2ccccc2)C(=O)NC(=O)NC1=O [Phenobarbital] |  | 150.000 |  | in vivo Vd_(L/kg)_Human ([1]; in vivo, iv): 0.540 L/kg; fp_Human (plasma protein): 0.505; in vivo CL_(L/hr/kg)_Human [3, 8]: 0.0036 L/h/kg
CCN1CCC[C@H]1CNC(=O)c1c(OC)ccc(Br)c1OC [Remoxipride] |  | 6.373 |  | in vivo Vd_(L/kg)_Human [1, 9]: 0.650 L/kg; in vivo CL_(L/hr/kg)_Human [3, 8]: 0.102 L/h/kg
O=C(O)CCCCO/N=C(/c1cccnc1)c1cccc(C(F)(F)F)c1 [Ridogrel] |  | 6.825 |  | in vivo Vd_(L/kg)_Human [1, 9]: 0.430 L/kg; in vivo CL_(L/hr/kg)_Human [3, 8]: 0.063 L/h/kg
CCN(CC)CCNC(=O)c1ccc(NS(C)(=O)=O)cc1 [Sematilide] |  | 3.694 |  | in vivo Vd_(L/kg)_Human [1, 9]: 0.820 L/kg; in vivo CL_(L/hr/kg)_Human [3, 8]: 0.222 L/h/kg
Cc1nnc2n1-c1ccc(Cl)cc1C(c1ccccc1Cl)=NC2 [Triazolam] |  | 3.222 |  | in vivo Vd_(L/kg)_Human ([1]; in vivo, iv): 0.580 L/kg; fp_Human (plasma protein): 0.100

— publication PMC8342319, “Predicting blood-to-plasma concentration ratios of drugs from chemical structures and volumes of distribution in humans” (Molecular Diversity, 2021)
